In brackets after ≈: the same amount, converted by molar mass. Several values for one entry are separate records, joined by “and”; a condition that tells them apart may be missing. Equal values may be shown once.
Experiments:
[1] = test system: MCF-7 (Human breast cancer); experiment: MTT test on MCF-7 cells; assay type: cell-based; conditions: MCF7, till 48 h
Description: (§1) The in vitro anticancer activities of the synthesized compounds were conducted using different cancerous and non-cancerous cell lines viz B16-F0 (Mouse melanoma), mouse Ehrlich Ascites Carcinoma (EAC), MCF-7 (Human breast cancer), MCF-10A (Human breast epithelial cells), and NIH/3T3 (Mouse fibroblast cells). All cell lines were procured from the National Centre for Cell Science, Pune, India. The procured cells were cultured in a six-well culture plate with Dulbecco’s Modified Eagle’s Medium (DMEM) supplemented with 10% fetal bovine serum in a humid CO2 incubator with 5% carbon dioxide at 37 °C.
(§2) The anti-cancer effect and cytotoxicity of both 3-MBTSc and 4-NBTSc compounds were evaluated against different cancerous (MCF-7, EAC, B16-F0 cells) and noncancerous cells (MCF-10A, NIH-3T3 cells) using MTT test. In brief, the stock solutions of both the tested compounds were prepared by dissolving 1 mg of each compound in 1 mL of DMSO separately. Then, four different concentrations (5, 10, 12, and 20 µg/mL) of both compounds were used during the test along with the negative control. Also, 10 μg/mL of doxorubicin (Dox) was used as the positive control during the experiment. Both untreated and treated cells were incubated for next 24 and 48 h. Then, all the steps during the whole experiment were carried out by our earlier reported procedure. Later, the absorbance values were measured by an ELISA reader (Biorad, Hercules, CA, USA) at 570 nm wavelength using secondary wavelength as a reference at 620 nm and the percentages of cell viability was calculated using the following formula [59, 60, 61]. Cell viability (%)= Mean absorbance of treated cells/Mean absorbance of untreated cells × 100
(§3) Based on the cell viability data, the IC50 values of both compounds were calculated on different cancer cells by plotting their corresponding dose-responsive graphs.
(§4) The obtained data were statistically analyzed. The descriptive analysis was done and the IC50 values were calculated by fitting the sigmoidal dose responsive graph using GraphPad Prism (GraphPad Software, Inc., La Jolla, CA, USA). […]

[2] = test system: mouse Ehrlich Ascites Carcinoma (EAC); experiment: MTT test on EAC cells; assay type: cell-based; conditions: Mus musculus, Ehrlich; EAC cells, MTT, till 48 h
Description: as §1, §2, §3, §4

[3] = MTT cytotoxicity test on NIH-3T3 cells; assay type: cell-based, Mouse; conditions: mouse, NIH/3T3 fibroblast cells
Description: as §1, §2

[4] = test system: NIH/3T3 (Mouse fibroblast cells); experiment: MTT cytotoxicity test on NIH-3T3 cells; assay type: cell-based; conditions: 48 h
Description: as §1, §2

[5] = MTT cytotoxicity test on MCF-10A cells; assay type: cell-based, Human; conditions: human, MCF-10A breast epithelial cells
Description: as §1, §2

[6] = test system: MCF-10A (Human breast epithelial cells); experiment: MTT cytotoxicity test on MCF-10A cells; assay type: cell-based; conditions: 48 h
Description: as §1, §2

[7] = test system: gene expression in EAC cells; experiment: RT-qPCR gene expression in EAC cells; assay type: cell-based, mouse
Description: (§5) Total mRNA was isolated and extracted by Trizol reagent as described in an earlier method. RevertAid First Strand cDNA synthesis kit (Thermo Fisher Scientific, Waltham, MA, USA) was used to synthesize cDNA in a total reaction volume of 20 μL containing oligo-dT primers, RiboLock RNase inhibitor, and reverse transcriptase. Gene-specific primers were used to amplify cDNAs in RT-qPCR machine (Applied Biosystems, Waltham, MA, USA).

[8] = test system: gene expression in MCF-7 human breast cancer cells; experiment: RT-qPCR gene expression in MCF-7 cells; assay type: cell-based
Description: as §5

B16-F0 (Mouse melanoma) = experiment: MTT test on B16-F0 cells; assay type: cell-based; conditions: Mus musculus, B16F0; B16-F0 cells, MTT, till 48 h
Description: as §1, §2, §3, §4

[9] = EAC cells treated, GAPDH housekeeping gene
[10] = EAC cells, difference of RQ values
[11] = MCF-7 cells treated, GAPDH housekeeping gene
[12] = MCF-7 cells, difference of RQ values

With `NC(=S)N[N-][CH+]c1ccc([N+](=O)[O-])cc1` [4-NBTSc, 4-Nitrobenzaldehyde thiosemicarbazone] the IC50 [1] was 7.102 ± 0.01 µg/mL (≈ 31.7 µM), the IC50 [2] was 3.832 ± 0.014 µg/mL (≈ 17.1 µM) and the viability at 48 h [3] was > 80%. The toxicity [4] was “less than 20%”, the viability at 48 h [5] was > 80% and the toxicity [6] was “less than 20%”. For the same molecule, the “BCl2 Treated (RQ value)” value [7, 9] was 6.195 ± 0.021, the “BRCA1 Treated (RQ value)” value [7, 9] was 7.195 ± 0.021 and the “Bax Treated (RQ value)” value [7, 9] was 2.945 ± 0.035. For the same molecule, the “Caspase-3 Treated (RQ value)” value [7, 9] was 4.23 ± 0.028, the “Dmp1 Treated (RQ value)” value [7, 9] was 4.1 ± 0.014 and the “Fos Treated (RQ value)” value [7, 9] was 3.095 ± 0.021. The “MTS 1 Treated (RQ value)” value [7, 9] was 1.945 ± 0.035, the “Mdm2 Treated (RQ value)” value [7, 9] was 4.955 ± 0.021 and the “PKC Treated (RQ value)” value [7, 9] was 7.13 ± 0.028. The “PTEN Treated (RQ value)” value [7, 9] was 8.65 ± 0.028, the “RAS Treated (RQ value)” value [7, 9] was 3.13 ± 0.028 and the “p19 Arf Treated (RQ value)” value [7, 9] was 4.605 ± 0.021. The “p21 Treated (RQ value)” value [7, 9] was 3.125 ± 0.035, the “p53 Treated (RQ value)” value [7, 9] was 3.165 ± 0.064 and the “pRB Treated (RQ value)” value [7, 9] was 6.095 ± 0.035. For the same molecule, the “BCl2 Fold Change (EAC treated-EAC untreated)” value [7, 10] was 3.105 fold, the “BRCA1 Fold Change (EAC treated-EAC untreated)” value [7, 10] was 5.135 fold and 5.13 fold and the “Bax Fold Change (EAC treated-EAC untreated)” value [7, 10] was -0.105 fold. The “Caspase-3 Fold Change (EAC treated-EAC untreated)” value [7, 10] was 1.33 fold, the “Dmp1 Fold Change (EAC treated-EAC untreated)” value [7, 10] was 1.95 fold and the “MTS 1 Fold Change (EAC treated-EAC untreated)” value [7, 10] was 0.04 fold. The “Mdm2 Fold Change (EAC treated-EAC untreated)” value [7, 10] was -0.25 fold, the “PTEN Fold Change (EAC treated-EAC untreated)” value [7, 10] was 7.42 fold and the “p19 Arf Fold Change (EAC treated-EAC untreated)” value [7, 10] was 1.855 fold. For the same molecule, the “p21 Fold Change (EAC treated-EAC untreated)” value [7, 10] was 2.13 fold, the “p53 Fold Change (EAC treated-EAC untreated)” value [7, 10] was 2.105 fold and the “pRB Fold Change (EAC treated-EAC untreated)” value [7, 10] was 4.19 fold. The “BCl2 Treated (RQ value)” value [8, 11] was 3.11 ± 0.01, the “BRCA1 Treated (RQ value)” value [8, 11] was 2.86 ± 0.455 and the “BRCA2 Treated (RQ value)” value [8, 11] was 4.13 ± 0.02. For the same molecule, the “Bax Treated (RQ value)” value [8, 11] was 1.825 ± 0.025, the “Caspase-3 Treated (RQ value)” value [8, 11] was 1.85 ± 0.04 and the “Dmp1 Treated (RQ value)” value [8, 11] was 2.19 ± 0.02. For the same molecule, the “ER Treated (RQ value)” value [8, 11] was 2.14 ± 0.03, the “Hdm2 Treated (RQ value)” value [8, 11] was 3.92 ± 0.045 and the “Myc Treated (RQ value)” value [8, 11] was 2.35 ± 0.025. The “PKC Treated (RQ value)” value [8, 11] was 6.09 ± 0.02, the “PR Treated (RQ value)” value [8, 11] was 1.15 ± 0.02 and the “PTEN Treated (RQ value)” value [8, 11] was 5.09 ± 0.02. For the same molecule, the “RAS Treated (RQ value)” value [8, 11] was 3.94 ± 0.02, the “p19 Arf Treated (RQ value)” value [8, 11] was 0.995 ± 0.025 and the “p21 Treated (RQ value)” value [8, 11] was 4.12 ± 1.51. For the same molecule, the “p53 Treated (RQ value)” value [8, 11] was 4.185 ± 0.025, the “pRB Treated (RQ value)” value [8, 11] was 3.81 ± 0.02 and the “BCl2 Fold Change (MCF 7 treated-MCF 7 untreated)” value [8, 12] was 1.02 fold. For the same molecule, the “BRCA1 Fold Change (MCF 7 treated-MCF 7 untreated)” value [8, 12] was 1.06 fold, the “BRCA2 Fold Change (MCF 7 treated-MCF 7 untreated)” value [8, 12] was 2.19 fold and the “Bax Fold Change (MCF 7 treated-MCF 7 untreated)” value [8, 12] was 1.1 fold. The “Caspase-3 Fold Change (MCF 7 treated-MCF 7 untreated)” value [8, 12] was 1.25 fold, the “Dmp1 Fold Change (MCF 7 treated-MCF 7 untreated)” value [8, 12] was -0.3 fold and the “ER Fold Change (MCF 7 treated-MCF 7 untreated)” value [8, 12] was -2.7 fold. The “Hdm2 Fold Change (MCF 7 treated-MCF 7 untreated)” value [8, 12] was -3.32 fold, the “Myc Fold Change (MCF 7 treated-MCF 7 untreated)” value [8, 12] was -5.1 fold and the “PR Fold Change (MCF 7 treated-MCF 7 untreated)” value [8, 12] was -0.05 fold. The “PTEN Fold Change (MCF 7 treated-MCF 7 untreated)” value [8, 12] was 2.945 fold and 2.95 fold, the “p19 Arf Fold Change (MCF 7 treated-MCF 7 untreated)” value [8, 12] was -0.34 fold and the “p21 Fold Change (MCF 7 treated-MCF 7 untreated)” value [8, 12] was 1.93 fold. The “p53 Fold Change (MCF 7 treated-MCF 7 untreated)” value [8, 12] was 2.025 fold, the “pRB Fold Change (MCF 7 treated-MCF 7 untreated)” value [8, 12] was 2.21 fold and the IC50 (B16-F0 (Mouse melanoma)) was 7.129 ± 0.012 µg/mL (≈ 31.8 µM).
